The nature of data set [1]: Drug exposure in plasma of triple transgenic C57BL/6 mouse alzheimer disease model at 30 mg/kg,po and measured after 2 hrs. Type of data set: ADME, organism-based.
Data set [2] can be described thus: Permeability across basolateral to apical side in human Caco2 cells. The following applies: Caco-2, read-out: permeability. Type of data set: ADME, cell-based. In general terms: Caco-2 cells form a polarised layer with tight junctions and transporters.
The nature of data set [3]: Permeability across apical to basolateral side in human Caco2 cells. The following applies: Caco-2, read-out: permeability. It counts as ADME, cell-based.
Data set [4] can be described thus: Permeability of compound at pH 7.4 by PAMPA assay. It counts as ADME. The following applies: read-out: permeability. On the technique in general: The PAMPA barrier holds no transporters, so it reflects passive diffusion.
A short description of data set [5]: Permeability of compound at pH 5.5 by PAMPA assay. It counts as ADME. The conditions noted are these: read-out: permeability.
A short description of data set [6]: Ratio of drug concentration in brain to plasma of triple transgenic C57BL/6 mouse alzheimer disease model at 30 mg/kg,po and measured after 2 hrs. It counts as ADME, organism-based.
Data set [7] is described as follows: Drug exposure in brain of triple transgenic C57BL/6 mouse alzheimer disease model at 30 mg/kg,po and measured after 2 hrs. It counts as ADME, organism-based. The conditions noted are these: read-out: Ct.

Each structure is given as a SMILES string.

The term Kp denotes the ratio of the level in a tissue or fluid to that in plasma or blood.

The compound `CCOc1ccncc1NC(=O)c1ccnc(NC(=O)C2CC2)c1` displayed a concentration at 2 h in data set [1] of 47 nM.
Regarding `O=C(Nc1cnccc1-c1ccc(Cl)cc1)c1ccnc(NC(=O)C2CC2)c1`, the Papp B→A in data set [2] came to 27.9 ×10⁻⁶ cm/s. For the same compound, the Papp A→B in data set [3] worked out at 35.4 ×10⁻⁶ cm/s. In addition, the Papp worked out at 126 ×10⁻⁶ cm/s in data set [4] and 90.4 ×10⁻⁶ cm/s in data set [5].
With `O=C(Nc1cnccc1-c1ccccc1)c1ccnc(NC(=O)C2CC2)c1`, in data set [2], the Papp B→A was 30.1 ×10⁻⁶ cm/s. Moreover, the Papp A→B in data set [3] stood at 31.9 ×10⁻⁶ cm/s. Besides, in data set [6], the Kp at 2 h turned out to be 0.2. Further, the Papp amounted to 48.3 ×10⁻⁶ cm/s in data set [4] and 52.6 ×10⁻⁶ cm/s in data set [5]. For the same compound, the concentration at 2 h in data set [7] came out at 440 nM.

(Values after ChEMBL document CHEMBL5252511 (J Med Chem, 2016).)
